# Experimental data published in patent publication US12338218B2, “Crystal form of benzimidazole-2-one compound, solvate thereof, crystal form of solvate thereof, and preparation method thereof” (MEDSHINE DISCOVERY INC., priority 2019, dated 2025).
# Where two headings read alike, the source gives them in different places.
# Key:
# Type in all cases: physicochemical
# [1] = Stability assay of crystal form A in different solvents (XRPD after 2 weeks)
# Protocol: 17 aliquots of crystal form A of compound 1 were weighed (about 15 mg per aliquot), and an appropriate amount of a single or mixed solvent in the Table below was added, respectively. The suspension was stirred at room temperature or 50° C. for 2 weeks. Solids were collected by centrifugation, and detected by XRPD for the crystal form status.
# [2] = Solid stability assay under accelerated condition (40° C./75% relative humidity, sealed)
# Protocol: According to “Guidelines for Stability Assay of APIs and Preparations” (Chinese Pharmacopoeia 2015 Edition, Volume IV, General Principles 9001), crystal form A of compound 1 was assayed for stability under accelerated condition of high temperature and high humidity (40° C./75% relative humidity, sealed).
# 1.5 g of crystal form A of compound 1 was weighed and placed in a double-layer low-density polyethylene bag. Each layer of low-density polyethylene bag was sealed by buckling, respectively, and then the double-layer low-density polyethylene bag was placed in an aluminum foil bag and heat-sealed. Samples were taken on the 1st, 2nd, 3rd and 6th months for assaying, and the assay results were compared with the initial assay results on day 0.
# [3] = Hygroscopicity of crystal form A (dynamic vapor sorption)
# Protocol: SEM Advantage-1 Dynamic Vapor Sorption Apparatus.
# 10-30 mg of crystal form A of compound 1 was weighed and placed in a DVS sample pan for assaying.
# [4] = Solid stability assay at high temperature, high humidity and strong light
# Protocol: Method for Determining Content Disclosed Herein
# Instrument model: Agilent 1260 high performance liquid chromatograph
# Detailed parameters of chromatographic conditions were as follows:
# Column temperature: 35° C.
# Detection wavelength: 230 nm
# Mobile phase A: 0.04% aqueous trifluoroacetic acid solution (V/V)
# Mobile phase B: 100% acetonitrile
# Diluent: acetonitrile: pure water=50:50 (V/V)
# Probe Wash: acetonitrile: pure water=50:50 (V/V)
# Gradient elution program: […]
# According to “Guidelines for Stability Assay of APIs and Preparations” (Chinese Pharmacopoeia 2015 Edition, Volume IV, General Principles 9001), crystal form A of compound 1 was assayed for stability at high temperature (60° C., open), high humidity (room temperature/92.5% relative humidity, open) and strong light (5000±500 Lux, 90 μw/cm^2, sealed).
# 1.5 g of crystal form A of compound 1 was weighed, placed in an open watch glass, and spread into a thin layer. The samples placed under high temperature and high humidity conditions were placed in a desiccator for inspection, and samples were taken on the 5th, 10th, and 30th days for assaying. The assay results were compared with the initial assay results on day 0. The samples placed under strong light condition were covered with a quartz glass cover, and samples were taken on the 5th and 10th days for assaying. The assay results were compared with the initial assay results on day 0.
# [5] = Solid stability assay under long-term condition (25° C./60% relative humidity, sealed)
# Protocol: According to “Guidelines for Stability Assay of APIs and Preparations” (Chinese Pharmacopoeia 2015 Edition, Volume IV, General Principles 9001), crystal form A of compound 1 was assayed for stability under long-term condition (25° C./60% relative humidity, sealed).
# 1.5 g of crystal form A of compound 1 was weighed and placed in a double-layer low-density polyethylene bag. Each layer of low-density polyethylene bag was sealed by buckling, respectively, and then the double-layer low-density polyethylene bag was placed in an aluminum foil bag and heat-sealed. Samples were taken on the 3rd and 6th months for assaying, and the assay results were compared with the initial assay results on day 0.
# [6] = 40° C./75% relative humidity, sealed, Month 1
# [7] = 40° C./75% relative humidity, sealed, Month 2
# [8] = 40° C./75% relative humidity, sealed, Month 3
# [9] = 40° C./75% relative humidity, sealed, Month 6
# [10] = High humidity (room temperature/92.5% relative humidity, open), Day 5
# [11] = High humidity (room temperature/92.5% relative humidity, open), Day 10
# [12] = High humidity (room temperature/92.5% relative humidity, open), Day 30
# [13] = High temperature (60° C., open), Day 5
# [14] = High temperature (60° C., open), Day 10
# [15] = High temperature (60° C., open), Day 30
# [16] = Strong light (5000 ± 500 Lux, 90 μw/cm^2, sealed), Day 5
# [17] = Strong light (5000 ± 500 Lux, 90 μw/cm^2, sealed), Day 10
# [18] = 25° C./60% relative humidity, sealed, Month 3
# [19] = 25° C./60% relative humidity, sealed, Month 6
structure (smiles),measurement,setting,value
CCOc1cc([C@@H](CS(C)(=O)=O)n2c(=O)[nH]c3cc(F)ccc32)ccc1OC [crystal form A of compound 1],Status (after 2 weeks),"[1]; 1,4-Dioxane:n-heptane (1:1), 50° C.",Suspension
same,Status (after 2 weeks),"[1]; 2-Butanol:m-xylene (2:1), 50° C.",Suspension
same,Status (after 2 weeks),"[1]; 2-Methyltetrahydrofuran:n-octane (4:1), 50° C.",Suspension
same,Status (after 2 weeks),"[1]; Acetone:toluene (2:1), room temperature",Suspension
same,Status (after 2 weeks),"[1]; Acetonitrile:water (3:1), room temperature",Suspension
same,Status (after 2 weeks),"[1]; Dichloromethane:m-xylene (1:1), room temperature",Suspension
same,Status (after 2 weeks),"[1]; Dimethyl sulfoxide:water (2:1), 50° C.",Suspension
same,Status (after 2 weeks),"[1]; Ethanol:water (3:1), 50° C.",Suspension
same,Status (after 2 weeks),"[1]; Ethyl acetate:m-xylene (2:1), room temperature",Suspension
same,Status (after 2 weeks),"[1]; Isopropanol:water (85:5), room temperature",Suspension
same,Status (after 2 weeks),"[1]; Isopropanol:water (92:8), room temperature",Suspension
same,Status (after 2 weeks),"[1]; Isopropanol:water (95:5), room temperature",Suspension
same,Status (after 2 weeks),"[1]; Isopropanol:water (98:2), room temperature",Suspension
same,Status (after 2 weeks),"[1]; Methyl isobutyl ketone:n-hexane (2:1), 50° C.",Suspension
same,Status (after 2 weeks),"[1]; Methyl tert-butyl ether, room temperature",Suspension
same,Status (after 2 weeks),"[1]; Toluene, room temperature",Suspension
same,Status (after 2 weeks),"[1]; Water, room temperature",Suspension
same,stability in solvents (in words),"[1]; methyl tert-butyl ether, toluene, water, mixed solvent of alcohol and water",good stability
same,Appearance,[2]; [6],White
same,Content,[2]; [6],99.5%
same,Total impurity,[2]; [6],0.32%
same,Appearance,[2]; [7],White
same,Content,[2]; [7],99.4%
same,Total impurity,[2]; [7],0.33%
same,Appearance,[2]; [8],White
same,Content,[2]; [8],99.2%
same,Total impurity,[2]; [8],0.33%
same,Appearance,[2]; [9],White
same,Content,[2]; [9],99.5%
same,Total impurity,[2]; [9],0.33%
same,Appearance,[2]; Day 0,White
same,Content,[2]; Day 0,99.5%
same,Total impurity,[2]; Day 0,0.33%
same,solid stability (in words),[2]; accelerated condition of 40° C./75% relative humidity,good stability
same,hygroscopicity (in words),[3],low hygroscopicity
same,hygroscopic weight gain (ΔW),"[3]; DVS, 25° C. and 80% RH",0.05%
same,hygroscopicity (in words),[3]; listed as Crystal form A of compound 1,no or almost no hygroscopicity
same,Appearance,[4]; Day 0,White
same,Content,[4]; Day 0,99.5%
same,Total impurity,[4]; Day 0,0.33%
same,Appearance,[4]; [10],White
same,Content,[4]; [10],101.1%
same,Total impurity,[4]; [10],0.32%
same,Appearance,[4]; [11],White
same,Content,[4]; [11],100.3%
same,Total impurity,[4]; [11],0.32%
same,Appearance,[4]; [12],White
same,Content,[4]; [12],99.5%
same,Total impurity,[4]; [12],0.33%
same,Appearance,[4]; [13],White
same,Content,[4]; [13],101.3%
same,Total impurity,[4]; [13],0.32%
same,Appearance,[4]; [14],White
same,Content,[4]; [14],100.3%
same,Total impurity,[4]; [14],0.32%
same,Appearance,[4]; [15],White
same,Content,[4]; [15],99.2%
same,Total impurity,[4]; [15],0.33%
same,Appearance,[4]; [16],White
same,Content,[4]; [16],100.4%
same,Total impurity,[4]; [16],0.33%
same,Appearance,[4]; [17],White
same,Content,[4]; [17],100.7%
same,Total impurity,[4]; [17],0.33%
same,solid stability (in words),"[4]; high temperature, high humidity, or strong light condition",good stability
same,Appearance,[5]; [18],White
same,Content,[5]; [18],99.0%
same,Total impurity,[5]; [18],0.34%
same,Appearance,[5]; [19],White
same,Content,[5]; [19],99.5%
same,Total impurity,[5]; [19],0.33%
same,Appearance,[5]; Day 0,White
same,Content,[5]; Day 0,99.5%
same,Total impurity,[5]; Day 0,0.33%
same,solid stability (in words),[5]; long-term condition of 25° C./60% relative humidity,good stability
